Measured values taken from patent US12208093B2 (THE JOHNS HOPKINS UNIVERSITY, priority 2016, dated 2025).
Entries after “also recorded” stand apart in the source; their conditions may differ. Counter-ions that a name gives are not always drawn.

Columns and labels:
MDM2-p53 = test: Co-immunoprecipitation of MDM2 and p53; MDM2 and p53 expression; format: cell-based, human; conditions: contact-inhibited infected cells
Description: SDS-polyacrylamide gel electrophoresis and immunoblot analysis. Cell lysates were quantified for protein content using bicinchoninic acid (BCA) protein assay kit (Pierce Chemical, Rockford, IL). Equivalent amount of proteins were used for Western blot analysis as described previously. Protein bands were visualized by chemiluminescence using Western Blotting Luminol Reagent (Santa Cruz Biotechnology, Santa Cruz, CA). The following antibodies were used for detection of HCMV proteins: mouse anti-IE1 and IE2, (MAb810); mouse anti-UL44 (Santa Cruz biotechnology Santa Cruz, CA); mouse monoclonal anti-pp65 (Vector laboratories, Burlingame, CA); mouse monoclonal anti-β-actin antibody (Millipore, Billerica, MA); rabbit polyclonal anti-RPS14 and mouse monoclonal anti-MDM2 (AbCam, Cambridge, UK), mouse monoclonal anti-p53 (Santa Cruz, CA); horseradish peroxidase (HRP)-conjugated goat anti-rabbit IgG (Cell Signaling); and HRP-conjugated sheep anti-mouse IgG, (GE Healthcare, Waukesha, WI). For detection of co-immunoprecipitated proteins, protein A-HRP conjugate (Cell Signaling Technologies, Beverly, MA) was used as secondary antibody to eliminate the interfering IgG bands.
Co-immunoprecipitation (IP) and immunoblotting. Non-infected, infected or emetine-treated HFFs were treated with MG132 (10 μM) for 12 h. […] 1 mg of lysate was precleared with bead slurry for 30 min. The precleared lysates were incubated with anti-MDM2 (2 μg) antibody overnight. The antibody complexes were isolated using protein A/G beads (Santa Cruz), washed three times with 50% IP buffer. The immunoprecipitate—protein A/G beads were boiled in SDS sample buffer, and the supernatant was analyzed on SDS-PAGE gels after immunoblotting as described previously. […] Reverse IPs were performed by pulling down the precleared lysates with either anti-p53 antibody or anti-RPS14 antibody and detected with MDM2. […] In other experiments, transfected or treated HEK293 cell lysates were pulled-down with anti-IE2 antibody and detected with anti-MDM2 antibody and vice-versa for reverse IP.

[1] = system: pp28-luciferase HCMV Towne; test: Add on and removal studies; format: cell-based, human cytomegalovirus (HCMV); conditions: luciferase at 72 hpi
Experimental: Add on and removal studies. […] For time-of-removal studies, the medium containing the compounds was removed at 0, 6, 12, 24, 36 and 48 hpi, cells were washed three times with phosphate-buffered saline (PBS), and drug-free medium was added. Luciferase activity was determined at 72 hpi.

[2] = system: pp28-luciferase HCMV Towne; test: microbe, parasite or virus in culture; format: cell-based, human cytomegalovirus (HCMV)
Description: A GCV-resistant pp28-luciferase HCMV strain, with a C607Y mutation in UL97 was also used. The recombinant viruses express luciferase under the control of the late CMV gene promoter, pp28. […] The recombinant viruses provide a highly-sensitive and reproducible reporter system which correlates with the classic plaque reduction assay. […] Human herpes virus strains were: luciferase HSV1-KOS/Dlux/oriS and clinical isolates of HSV2.
Cell culture, virus infection and anti-viral assays. […] Infection with HCMV or HSV was performed in HFFs, and infection with mouse CMV was performed in MEFs. For HCMV, cells were seeded in either a 96-well plate or 100 mm culture plates (Corning Costar, Sigma Aldrich) at 0.5 or 2 million cells/plate. Following 90 minute adsorption, media was removed and cells were washed with PBS. Media containing 4% FBS and compounds were added to each well. Infected treated HFFs were collected at 72 hpi and lysates were assayed for luciferase activity using a luciferase assay kit (Promega, Madison, WI) on GloMax®-Multi+Detection System (Promega). In second cycle assays, supernatants were collected from all conditions of the first cycle at 96 hpi and used for infection of fresh HFFs in 96-well-plates. […] For HSV1-KOS/Dlux/oriS, a luciferase assay was performed at 24 hpi. Plaque assays were performed with clinical isolates of HSV2 and HCMV Towne. […] Following virus adsorption (60 min and 90 min for HSV and HCMV, respectively), virus was aspirated, and DMEM containing 4% fetal bovine serum (FBS) with (for HSV) or without (for HCMV) 0.5% carboxymethyl-cellulose, were added with the compounds at indicated concentrations into triplicate wells. After incubation at 37° C. for 10 days (for HCMV) or 2 days (for HSV), the overlay was removed and plaques were counted after crystal violet staining.

HCMV entry = test: Virus entry immunofluorescence assay for pp65; format: cell-based; conditions: emetine 75 nM, GCV 10 μM, CpG 2006 10 μM; added 24 h prior to infection; dihydrochloride hydrate
Experimental: Immunofluorescence. […] Compounds were diluted in serum-free medium and added to HFFs seeded on chamber slides 24 h prior to infection. After infection and treatment, cells were fixed, permeabilized, and air-dried. Cells were then incubated with mouse monoclonal anti-pp65 antibody at 37° C. in humidified chambers for 1 h, washed three times with 0.1% Tween 20 in PBS (PBST), incubated with rhodamine conjugated anti-mouse IgG (Sigma Chemical Co) at 37° C. in humidified chambers for 1 h, and washed with PBST (0.1% Tween 20). A drop of mount oil containing DAPI (4,6-diamidino-2-phenylindole) (Santa Cruz) was added to the slides before visualization with a Nikon Eclipse E-800 fluorescence microscope.

[3] = system: pp28-luciferase HCMV Towne; test: Second cycle luciferase assay; format: cell-based, human cytomegalovirus (HCMV); conditions: emetine 75 nM, vs infected control
Description: (§1) Cell culture, virus infection and anti-viral assays.

HCMV Towne = HCMV Towne plaque reduction assay in HFFs; format: cell-based, human cytomegalovirus (HCMV)
Description: as §1

RPS14 = RPS14 (Homo sapiens, UniProt P62263); test: Confocal microscopy of RPS14 localization; format: cell-based; conditions: 24 hpi; infected cells; emetine 75 nM
Experimental: Confocal microscopy. […] Cells were fixed with 3.7% paraformaldehyde for 20 min at room temperature, permeabilized with ice cold methanol for 10 min at −20° C. and blocked with 5% bovine serum albumin in 0.5% Tween-20 for 20 min at room temperature. Cells were incubated with primary antibodies at 4° C. overnight, washed and incubated with fluorescently labeled secondary antibodies for 2 h at 37° C. Fluorescence microscopy was performed by using a confocal laser scanning microscope (Nikon EZ Cl confocal microscope). All images were captured at 60× magnification and processed under identical conditions with constant parameters (including scan speed and excitation and emission wavelengths) using Nikon EZ Cl software.

[4] = Cell viability (MTT) assay; conditions: human, non-infected HFFs
MCMV = MCMV infection model in BALB/c mice; format: in vivo, Murid Herpesvirus (MCMV) in BALB/c mice
Experimental: Control mice received 0.1 ml of saline intraperitoneally. […] Control and infected mice received equivalent volumes of saline. […] Mice were sacrificed at day 14 after infection. Blood samples were collected by cardiac puncture. […] Two million MEFs were seeded into 24 well plates. […] Plaques were counted after three days. […] The gB primers were: F: 5′ […] 3′ (SEQ ID NO:1); R: 5′ […] 3′(SEQ ID NO:2) (43).

[5] = system: HSV-2 (clinical isolates); test: HSV-2 plaque assay in HFFs; format: cell-based, herpes simplex virus 2; conditions: nM concentrations
Description: as §1

p21 mRNA = test: qRT-PCR for p21 in infected HFFs; format: cell-based, human; conditions: contact-inhibited cells, emetine 75 nM, p<0.01
Description: RNA isolation and real time quantitative reverse transcriptase (qRT) PCR. Total RNA was isolated from cultured cells using RNeasy Mini kit (Qiagen, Georgetown, MD) according to manufacturer's instructions. RevertAid first strand cDNA synthesis kit (Fermentas life sciences, Cromwell Park, MD) was used to synthesize first strand cDNA from total RNA using oligo-dT primers. Negative reverse-transcriptase (−RT) reactions were included to ensure the specificity of qRT-PCR reactions. Synthesis of first strand cDNA from mRNA template was carried out at 42° C. for 1 h. Quantitative RT-PCR (qRT-PCR) was performed using specific primers for p21 (F: 5′ […] 3′ (SEQ ID NO:3); R: 5′ […] 3′) (SEQ ID NO:4) and SYBR green (Fermentas life science) with two-step cycling protocol (95° C. for 15 s, 60° C. for 1 min). Reactions were performed in triplicates and GAPDH (F: 5′ […] 3′ (SEQ ID NO:5); R: 5′ […] 3′ (SEQ ID NO:6)) was used as the internal control.

With `CC[C@H]1CN2CCc3cc(OC)c(OC)cc3[C@@H]2C[C@@H]1C[C@H]1NCCc2cc(OC)c(OC)cc21` [emetine, emetine dihydrochloride hydrate] the MDM2 expression (MDM2-p53; 72 hpi) was “increased”, the p53 expression (MDM2-p53; 72 hpi) was “increased” and the “HCMV-induced interaction between MDM2 and p53” value (MDM2-p53; not cycling cells, MG132) was “disrupted”. The “time of addition after which activity against HCMV replication is lost” value ([1]; add-on) was over 12 h, the “time compound is required to fully inhibit HCMV” value ([1]; removal assay) was “at least 24 h” and the “HCMV inhibition in relation to cell density at time of infection” value ([2]; HFFs 0.5-2 million cells/plate, emetine 75 nM, GCV 5 μM) was “significant virus inhibition was observed only at higher cell density”. The EC50 ([2]; Human betaherpesvirus 5, read-out: EC50 against HCMV) was 0.04 µM, the “reduction in normalized luciferase activity at low cell density” value ([2]; emetine 75 nM, 0.5 million cells/plate in 96-well plate) was “no significant reduction” and the “concentration that fully inhibits HCMV” value ([2]; luciferase at 72 hpi) was 75 nM. The “inhibition of viral entry” value (HCMV entry) was “neither emetine nor GCV inhibited viral entry; also recorded: does not inhibit”, the “increase in pp28-luciferase activity, second cycle infection” value ([3]; 0.5 million cells/plate, p>0.5) was 1.5 fold and the “reduction in pp28-luciferase activity, second cycle infection” value ([3]; 1 million cells/plate, p<0.001) was 1.5 fold. For the same compound, the “pp28-luciferase activity, second cycle infection” value ([3]; 2 million cells/plate, p<0.001) was “almost complete inhibition”, the “inhibition of HCMV by plaque reduction assay” value (HCMV Towne) was “further confirmed” and the “reduction in the number and size of plaques” value (HCMV Towne; 2 million cells/plate (p<0.001) as compared to 0.5 million cells/plate, emetine 75 nM) was 30 fold. For the same compound, the tolerability in mice was “well-tolerated”, the RPS14 localization (RPS14) was “induced RPS14 translocation into the nucleus” and the CC50 at 72 h [4] was 8 µM. For the same compound, the “MCMV inhibition in mice” value (MCMV; oral every 72 h / three days, low dose 0.1 mg/kg, dihydrochloride hydrate, 0.1 mg/kg) was “inhibited; also recorded: high efficacy; also recorded: inhibits mouse CMV replication; also recorded: effectively suppressed MCMV”, the “difference in efficacy between 0.1 and 1 mg/kg” value (MCMV; oral, every three days) was “no significant difference” and the “inhibition of HSV-2” value [5] was “inhibited”. The “increase in p21 mRNA” value (p21 mRNA; 24 hpi) was 5.4 fold and the “increase in p21 mRNA” value (p21 mRNA; 72 hpi) was 6.7 fold.
